In patent US9833497B2, “Human originated EGF domain proteins and use of the same” (CHENGDU SOURCEBIO LIMITED-LIABILITY COMPANY, priority 2013, dated 2017):

Experiments:
Format in all cases: cell-based
Proteus vulgaris = assay: MIC against Gram-negative bacteria: Proteus vulgaris; details: 5×10^5 CFU/mL
Outline: (§1)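 Bacteria grown in LB at 37° C with shaking to McFarland 0.5, pelleted and resuspended in fresh LB, then seeded at 5×10^5 CFU/mL per well. Purified recombinant human EGF domain proteins were two-fold serially diluted in triplicate and plates shaken at 37° C, 175 rpm. MIC is the lowest protein concentration with no bacterial growth.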

Proteus mirabilis = assay: MIC against Gram-negative bacteria: Proteus mirabilis; details: 5×10^5 CFU/mL
Outline: as §1

Aeromonas hydrophila = assay: MIC against Gram-negative bacteria: Aeromonas hydrophila; details: 5×10^5 CFU/mL
Outline: as §1

Citrobacter diversus = assay: MIC against Gram-negative bacteria: Citrobacter diversus; details: 5×10^5 CFU/mL
Outline: as §1

E. coli BL21 = assay: MIC against Gram-negative bacteria: E. coli BL21; details: 5×10^5 CFU/mL
Outline: as §1

Enterobacter cloacae = assay: MIC against Gram-negative bacteria: Enterobacter cloacae; details: 5×10^5 CFU/mL
Outline: as §1

Moraxella catarrhalis = assay: MIC against Gram-negative bacteria: Moraxella catarrhalis; details: 5×10^5 CFU/mL
Outline: as §1

E. coli DH5α = assay: Antibacterial activity: MIC and growth curve against E. coli DH5α in 96-well plate; details: minimal inhibitory concentration against E. coli DH5α; 96-well plate, 5×10^5 CFU/mL, 37° C., judged after 8 h
Outline: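 MIC taken as lowest protein level with no bacterial growth, tracked by A600 every 30 min during 37 °C, 175 rpm culture. Two-fold protein series 50-12.5 μg/mL final, triplicate wells, against 5×10^5 CFU/mL of LB-washed mid-log cells.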

Serratia marcescens = assay: MIC against Gram-negative bacteria: Serratia marcescens; details: 5×10^5 CFU/mL
Outline: as §1

Pseudomonas aeruginosa = assay: MIC against Gram-negative bacteria: Pseudomonas aeruginosa; details: 5×10^5 CFU/mL
Outline: as §1

Klebsiella pneumonia = assay: MIC against Gram-negative bacteria: Klebsiella pneumonia; details: 5×10^5 CFU/mL
Outline: as §1

[1] = E. coli BL21, 10 h cultivation at 37° C.
[2] = 10 h cultivation at 37° C., two-fold serial dilution

Substance	MIC (μg/mL) P. vulgaris (Proteus vulgaris; 10 h cultivation at 37° C.) [µg/mL]	MIC (μg/mL) P. mirabilis (Proteus mirabilis; 10 h cultivation at 37° C.) [µg/mL]	MIC (μg/mL) A. hydrophila (Aeromonas hydrophila; 10 h cultivation at 37° C.) [µg/mL]	MIC (μg/mL) C. diversus (Citrobacter diversus; 10 h cultivation at 37° C.) [µg/mL]	MIC (μg/mL) E. coli BL21 (E. coli BL21; [1]) [µg/mL]	MIC (μg/mL) E. cloacae (Enterobacter cloacae; 10 h cultivation at 37° C.) [µg/mL]	MIC (μg/mL) M. catarrhalis (Moraxella catarrhalis; 10 h cultivation at 37° C.) [µg/mL]	MIC (E. coli DH5α) [µg/mL]	MIC (μg/mL) S. marcescens (Serratia marcescens; 10 h cultivation at 37° C.) [µg/mL]	MIC (μg/mL) P. aeruginosa (Pseudomonas aeruginosa; 10 h cultivation at 37° C.) [µg/mL]	MIC (μg/mL) K. pneumonia (Klebsiella pneumonia; 10 h cultivation at 37° C.) [µg/mL]	further results
PRT234 (DINECATLSKVSCGKFSDCWNTEGSYDCVCSPGYEPVSGAKTFKNESENTCQ; listed as Homo sapiens)	12.5	25	12.5	25	50	25	12.5	25	25	25	12.5	
PRT148 (LTDICSVSNGGCHPDASCSSTLGSLPLCTCLPGYTGN; listed as Homo sapiens)	12.5	50	12.5	50	50	50	12.5	25	50	25	12.5	
PRT1114 (PSKECSLNVTCLDGSPCEGGSPAANCSCLEGLAGQRCQ; listed as Homo sapiens)								25				MIC P. vulgaris (Proteus vulgaris; [2]): 25 µg/mL; MIC P. mirabilis (Proteus mirabilis; [2]): 50 µg/mL; MIC A. hydrophila (Aeromonas hydrophila; [2]): 25 µg/mL; MIC C. diversus (Citrobacter diversus; [2]): 12.5 µg/mL; MIC E. coli BL21 (E. coli BL21; [2]): 12.5 µg/mL; MIC E. cloacae (Enterobacter cloacae; [2]): 25 µg/mL; MIC M. catarrhalis (Moraxella catarrhalis; [2]): 25 µg/mL; MIC S. marcescens (Serratia marcescens; [2]): 12.5 µg/mL; MIC P. aeruginosa (Pseudomonas aeruginosa; [2]): 25 µg/mL; MIC K. pneumonia (Klebsiella pneumonia; [2]): 50 µg/mL
PRT842 (CGCSFHSHCRKRGPGFCDECQDWTWGEHCERCRPGSFGNATGSRGCRP; listed as Homo sapiens)	12.5	12.5	25	12.5	12.5	12.5	25	12.5	25	25	25	
PRT1330 (VVDFCKQDNGGCAKVARCSQKGTKVSCSCQKGYKGDGHSCT; listed as Homo sapiens)								12.5				MIC against P. vulgaris (Proteus vulgaris; Proteus vulgaris, 96-well plate, 37° C., 10 h): 25 µg/mL; MIC against P. mirabilis (Proteus mirabilis; Proteus mirabilis, 96-well plate, 37° C., 10 h): 12.5 µg/mL; MIC against A. hydrophila (Aeromonas hydrophila; Aeromonas hydrophila, 96-well plate, 37° C., 10 h): 12.5 µg/mL; MIC against C. diversus (Citrobacter diversus; Citrobacter diversus, 96-well plate, 37° C., 10 h): 50 µg/mL; MIC against E. coli BL21 (E. coli BL21; E. coli BL21, 96-well plate, 37° C., 10 h): 12.5 µg/mL; MIC against E. cloacae (Enterobacter cloacae; Enterobacter cloacae, 96-well plate, 37° C., 10 h): 50 µg/mL; MIC against M. catarrhalis (Moraxella catarrhalis; Moraxella catarrhalis, 96-well plate, 37° C., 10 h): 25 µg/mL; MIC against S. marcescens (Serratia marcescens; Serratia marcescens, 96-well plate, 37° C., 10 h): 50 µg/mL; MIC against P. aeruginosa (Pseudomonas aeruginosa; Pseudomonas aeruginosa, 96-well plate, 37° C., 10 h): 12.5 µg/mL; MIC against K. pneumonia (Klebsiella pneumonia; Klebsiella pneumonia, 96-well plate, 37° C., 10 h): 12.5 µg/mL
